In data set [1] the test system is RT1 class II, locus Ba. Description: GENEchip mRNA expression in gastrocnemius. The note with it: probe 1377334_at. The data set is classed as in vivo, rat.
Data set [2] deals with Type II diabetic female db/db mice. Description: Onset of diabetic complication in db/db mice (urine albumin, urine 8-OHdG, blood glucose, kidney histopathology). The data set is classed as in vivo, mouse. The protocol: Type II diabetic female db/db mice and non-diabetic db/m were purchased from Clea Japan, Inc. Mice were bred under the conditions with a 12 hours light-dark cycle at a temperature of 21° C. to 25° C. For acclimation, mice were fed CE-2 (Clea Japan, Inc.) with free access to water for one week. The mice were divided into three groups each consisting of 8 mice (non-diabetic db/m, diabetic db/db, and astaxanthin-administered db/db) and each group was bred with feed ad libitum. Mice in astaxanthin-administered group were fed a diet in which 0.02% astaxanthin in terms of free astaxanthin was compounded with CE-2. Each group was bred for 12 weeks, and body weight, blood glucose levels, 8-OHdG levels in urine, albumin levels in urine, and kidney histopathology, were measured. Astaxanthin used here was AstaReal (registered trademark, Fuji Chemical Industry Co., Ltd.) 50F, which is oil composed of astaxanthin fatty acid ester and triglycerides and contains 5% astaxanthin in terms of free astaxanthin.
FIG. 1 is a photomicrograph of glomerulus.

Data set [3] deals with gastrocnemius of Wistar male rats. Description: Muscle atrophy test (sciatic nerve of left leg cut). The data set is classed as in vivo, rat. The protocol: 9-week-old Wistar male rats were bred each being fed a normal diet for breeding and water ad libitum under the conditions with a 12 hours light-dark cycle at a temperature of 21° C. to 25° C. and were accustomed to the environment in advance. The rats were divided into two groups of 10 rats per group, and each group was bred with a normal diet (control group) or a diet to which astaxanthin was added (Ax group) fed ad libitum. The diet to which astaxanthin was added was prepared by mixing free astaxanthin at 0.02%. At one week after the start of ingestion of astaxanthin-added diet, the sciatic nerve of the left leg was cut and muscle of the left lower extremity was inactivated. After breeding for further two weeks, rats were killed, triceps surae (soleus muscle, gastrocnemius, and plantaris) were extracted from left leg (limb in which nerves were removed) and right leg (control limb), respectively, and the wet weight of the gastrocnemius was measured. The atrophy rate was calculated using the difference of the wet weight of the gastrocnemius of left lower limb to the wet weight of the gastrocnemius of right lower limb with respect to each group Table 7. […]

For data set [4] the following is noted: Takahashi Jiro et al, Rinsho Iyaku 2004; cited from earlier work.

As to `CC1=C(/C=C/C(C)=C/C=C/C(C)=C/C=C/C=C(C)/C=C/C=C(C)/C=C/C2=C(C)C(=O)C(O)CC2(C)C)C(C)(C)CC(O)C1=O` (stereo not drawn) [astaxanthin, 3,3′-dihydroxy-β,β-carotene-4,4′-dione], the “gene expression intensity ratio ad/nd” value in data set [1] (denervated left leg gastrocnemius, astaxanthin group vs control group) is on record as 0.51. The molecule also had a luminescence intensity ad in data set [1] (denervated left leg gastrocnemius, astaxanthin-administered group) of 312. Besides, in data set [1] (right leg (control) gastrocnemius, astaxanthin group vs control group), the “gene expression intensity ratio ac/nc” value stood at 1.60. Also, the luminescence intensity ac in data set [1] (right leg (control) gastrocnemius, astaxanthin-administered group) is on record as 220.5. The “Albumin level in urine” value in data set [2] (at the end (12 weeks), db/db mice, diet with 0.02% astaxanthin (AstaReal 50F)) was 77.8 ± 44.6 mg/dL; in data set [2] (at the start, astaxanthin-administered db/db mice) it was 46.2 ± 1.5 mg/dL. Moreover, the blood glucose levels entry in data set [2] (diabetic db/db mice, diet with 0.02% astaxanthin, 12 weeks) is “reduces blood glucose levels”. Further, the “enlargement of glomerular mesangium (microscope)” value in data set [2] (kidney of db/db(Ax) vs db/db mice) was “apparently moderated”. Besides, in data set [3] (difference of wet weight of left to right gastrocnemius, Ax group), the “Gastrocnemius Atrophy rate” value turned out to be 37.7%. The “atrophy rate compared with the control group” value in data set [3] (risk rate 5% or less) was “smaller value of atrophy rate”. For the same molecule, the mutagenicity result in data set [4] is listed as “has not been observed having any mutagenicity”.

The values above are taken from patent US10828269B2, “Reducing muscle atrophy by administering astaxanthin” (FUJI CHEMICAL INDUSTRIES CO., LTD., priority 2004, dated 2020).
